Measurements taken from patent US6518317B1, “Antiviral agents” (priority 1997, dated 2003).

What was measured:
[1] = test system: CEM-SS cells infected by HIV-1IIIB (CEM-3B); assay: Survival rate of HIV-infected T cells, CEM-3B; format: cell-based, human; conditions: three days
Description: (§1) The cyclopentenone (1-5 μM) was added to CEM-SS cells infected by HIV-1IIIB (abbreviated as CEM-3B) or to H9 cells infected by HIV-1IIIB (abbreviated as H9-3B) and incubated for three days. In both cells, 90% or more of the cells were infected by HIV-1IIIB. Numbers of living and dead cells were counted and the survival rate of the cells was calculated therefrom.
(§2) Thus, FIG. 3 and FIG. 4 are the graphs showing the relation between the concentration of the cyclopentenone added and the survival rate of the cells in which abscissa is the concentration (μM) of the cyclopentenone added While ordinate is the survival rate (%) of the cells after incubating for three days. FIG. 3 is the result when CEM-3B were used while FIG. 4 is the result when H9-3B were used.

CEM-SS cells = assay: Survival rate of human T cells, CEM-SS; format: cell-based; conditions: 0.5-5 m M, three days
HIV-1IIIB = assay: p24 antigen in supernatant liquid of H9-3B culture; format: cell-based; conditions: three days
Description: as §1
Concentration of the p24 antigen contained in the supernatant liquid of the culture after incubation for three days in the case of Example 5-(2) was measured. The result was that the concentration of p24 decreased corresponding to the centration of the cyclopentenone added thereto whereupon the anti-HIV action was noted. In Table 10, the figures in parentheses are the ratio of each of the supernatant liquid of the cell cultures (when none of the cyclopentenone was added) to the concentration of p24 expressed in terms of %.

[2] = test system: adenovirus type 5 (Adenoid 75; ATCC VR-5); assay: Adenovirus hexon protein in HeLa cells, cyclopentenone before and after infection; format: cell-based; conditions: 10 μM or more
Description: (5) HeLa cells were incubated by the same manner as in Example 2-(2) and treated with the cyclopentenone. After that, the cells were infected by the adenovirus type 5 (Adenoid 75; ATCC VR-5) by the same manner as in Example 2-(4) and incubated in a medium to which the cyclopentenone was added. After the incubation, detection of the hexon proteins of adenovirus was conducted by the same manner as in Example 2-(2).

NIH3T3 cells = assay: Colony formation of NIH3T3 cells; conditions: 5 μM, nine days, NIH3T3, three runs
Ad5 dlX [an adenovirus] = assay: Amount of viral DNA in HeLa cells treated before infection with adenovirus; format: cell-based; conditions: 5 μM or more
Description: (3) Viral DNA was extracted according to a method mentioned in “Protocols for Experiments of Virus” (pages 24-25; published by Medical View) from the HeLa cells which were treated with the cyclopentenone and infected by adenovirus followed by incubation by the same manner as in Example 2-(2).
Thus, cells infected by virus were washed with a saline solution buffered by phosphoric acid, suspended in 1 ml of aqueous solution of 0.6% sodium laurylsulfate (SDS) and 10 mM EDTA and 3.0 ml of 5M aqueous solution of sodium chloride was added thereto. The mixture was allowed to stand at 0° C. for one hour and centrifuged and 3 ml of ethanol was added to the resulting supernatant liquid followed by mixing. The precipitate obtained by centrifugal separation was dissolved in 0.2 ml of TE buffer (10 mM Tris-HCl of pH 8.0 and 1 mM EDTA), then 2 μl of 10% SDS and 4 μl of 10 mg/ml proteinase K (manufactured by Takara Shuzo) were added thereto and the mixture was kept at 37° C. for one hours. This was extracted with a mixture of equal amounts of phenol and chloroform twice, 20 μl of 3M sodium acetate and 400 μl of ethanol were added to the aqueous layer, the mixture was centrifuged and the precipitate was dissolved in 50 μl of the TE buffer to give a DNA solution. […]

[3] = test system: H9 cells infected by HIV-1IIIB (H9-3B); assay: Survival rate of HIV-infected T cells, H9-3B; format: cell-based, human; conditions: three days
Description: as §1, §2

[4] = test system: adenovirus of type 5 (Adenoid 75; ATCC VR-5); assay: Adenovirus hexon protein in HeLa cells, cyclopentenone added after infection; format: cell-based; conditions: 10 μM or more, 20 hours
Description: (4) After HeLa cells were incubated by the same manner as in Example 2-(2), DMEM containing 5% of fetal bovine serum which contained adenovirus of type 5 (Adenoid 75; ATCC VR-5) was added to the cells without addition of the cyclopentenone whereby the cells were infected by that. […] After the incubation, detection of hexon proteins of adenovirus was conducted by the same manner as in Example 2-(2).

[5] = Anti-inflammatory test of TPA in conchae of mice; format: in vivo; conditions: 2.5 mg (per mouse) applied to concha of the mouse
NIH3T3/E7-2 = assay: Colony formation of HPV16 type E7-transformed cell strain NIH3T3/E7-2; format: cell-based; conditions: 5 μM
Description: Each incubation was conducted in three runs.

[6] = test system: adenovirus type 5 (Adenoid 75; ATCC VR-5); assay: Amount of viral DNA in HeLa cells, cyclopentenone before and after infection; format: cell-based; conditions: 5 μM or more
Description: (6) Amount of the viral DNA was measured by the same manner as in Example 2-(3) from the HeLa cells which were treated with the cyclopentenone infected by the adenovirus type 5 (Adenoid 75; ATCC VR-5) followed by incubating by the same manner as in Example 2-(5).

[7] = test system: carcinogenesis caused by a two-stage carcinogenesis on skin; assay: Two-stage (DMBA/TPA) carcinogenesis on skin of mice; format: in vivo, mice of ICR strain; conditions: 2.5 mg per mouse
Description: Hair on the back of mice of ICR strain (purchased from Nippon SLC; seven weeks age; female) was shaved and DMBA (dimethylbenzanthracene) as an initiator in a form of a solution in acetone was applied thereto at the dose of 50 μg/mouse.
Thus, FIG. 5 is a graph showing the anti-carcinogenic action of the cyclopentenone in which ordinate is a carcinogenic rate while abscissa is time (weeks). In the graph, open triangles, black triangles and open circles stand for a group treated with 2.5 mg of the cyclopentenone per mouse (12 mice in total), a group treated with 0.8 mg of the cyclopentenone per mouse (11 mice in total) and a control group (12 mice in total), respectively.

H9 cells = assay: Survival rate of human T cells, H9; format: cell-based; conditions: three days

O=C1C=CC(O)C1O (stereo not shown) [cyclopentenone, 4,5-dihydroxy-2-cyclopenten-1-one]
survival rate of the cells ([1]; 3 μM): significantly decreased | survival rate of the cells ([1]; 5 μM): further decreased | survival rate of the cells (CEM-SS cells): no significant decrease | Concentration of p24 in Supernatant Liquid of the cell cultures (HIV-1IIIB; 1 μM): 203 ng/mL | ratio to the concentration of p24 when none of the cyclopentenone was added (HIV-1IIIB; 1 μM): 97% | Concentration of p24 in Supernatant Liquid of the cell cultures (HIV-1IIIB; 3 μM): 157 ng/mL | ratio to the concentration of p24 when none of the cyclopentenone was added (HIV-1IIIB; 3 μM): 75% | Concentration of p24 in Supernatant Liquid of the cell cultures (HIV-1IIIB; 5 μM): 148 ng/mL | ratio to the concentration of p24 when none of the cyclopentenone was added (HIV-1IIIB; 5 μM): 70% | amount of the hexon proteins compared with the control [2]: apparent decrease | Numbers (average ± SD) of the Colonies (NIH3T3 cells): 85.3 ± 4.0 | amount of viral DNA compared with the control (Ad5 dlX [an adenovirus]): apparent decrease | survival rate of the cells ([3]; 3 μM): significantly decreased | survival rate of the cells ([3]; 5 μM): further decreased | amount of hexon proteins compared with the control [4]: apparent decrease | anti-inflammatory activity [5]: no anti-inflammatory activity | sensitivity of the cells into which E7 was introduced compared with the control cells (NIH3T3/E7-2): high sensitivity | Numbers (average ± SD) of the Colonies (NIH3T3/E7-2; nine days, NIH3T3/E7-2, three runs): 22.3 ± 3.5 | amount of the viral DNA compared with the control [6]: apparent decrease | carcinogenic rate ([7]; applied one hour before each TPA, within 15 weeks (1 mouse out of 12)): 8.3% | carcinogenic rate ([7]; within and after 19 weeks (3 mice out of 12)): 25% | survival rate of the cells (H9 cells): no significant decrease
